Consider seven compounds from article PMC12388125, “Design, Synthesis, and Pharmacological Activity of the N-(4-(1H-1,2,4-Triazol-1-yl)phenyl)-substituted-amide Derivatives” (Molecules, 2025).

Read-outs that look alike come from different tables or passages of the source.

The test system of series [1] is MES-induced seizures. In words: animal or person. The class given is in vivo, Kunming mice. The following applies: for minimal effective dose: Mus musculus, ip, doses 30, 100, 300 mg/kg, read-out: MES, dose at which at least one of three animals was protected; for ED50 (MES) / PI (TD50/ED50) MES: 0.5 h; for ED50 (MES): value (95% CI); for PI (TD50/ED50) MES: Kunming, mouse, in vivo. The protocol:
(§1) Pharmacological tests were performed using two experimental animal models, MES and scPTZ, which were divided into three dosage groups of 30, 100, and 300 mg/kg, and the anticonvulsant activity of the target compounds 6a–m and 9a–g, after 0.5 and 4 h of administration, respectively, were tested. Carbamazepine, which is effective in the MES model, was chosen as a positive control, and ethosuximide, which is effective in the scPTZ model, was chosen as a positive control. […]
Protection against the spread of
extension component of the seizure. […]

Series [2] deals with pentylenetetrazole-induced clonic seizures. In words: animal or person. The class given is in vivo, Kunming mice. As to conditions: for minimal effective dose: Mus musculus, sc, read-out: scPTZ, dose at which at least one of three animals was protected; for ED50 (scPTZ) / PI (TD50/ED50) scPTZ: 0.5 h; for ED50 (scPTZ): value (95% CI); for PI (TD50/ED50) scPTZ: Kunming, mouse, in vivo. How it is done: as §1
The test compound wa s
Absence of clonic spasms indicated a […]

Series [3] concerns mice. The series can be described thus: Rotarod (ROT) neurotoxicity test. As to conditions: for NT (neurotoxicity, ROT), dose at which at least one of three animals showed neurotoxicity: doses 100, 300 mg/kg; for TD50 (ROT): 0.5 h, value (95% CI). A general note: The rotarod test checks motor coordination on a turning rod.
Protocol: The neurotoxicity of the target compounds was tested using the ROT experimental model, which was divided into two dose groups, 100 and 300 mg/kg, and tested after 0.5 and 4 h of administration, respectively.
The neurotoxicity of the target compounds was determined using the ROT experimental model.
The neurotoxicity of the compounds wa s measured in mice using the rotarod test. Mice
we r e trained to stay on an accelerating rotarod (diameter, 3.2 cm) rotating at 10 rpm. Trained
animals we r e injected with the test compounds (i.p.) and neurotoxicity wa s measured as the
inability of the animal to maintain equilibrium on the rod for at least 1 min in each of the
[4] abbreviates: 4 h after administration, doses 30, 100, 300 mg/kg.
Setting [5] is: 0.5 h after administration, doses 30, 100, 300 mg/kg.

In the case of `O=C(Nc1ccc(-n2cncn2)cc1)c1ccccc1C(F)(F)F` [Compound 6h, N-(4-(1H-1,2,4-triazol-1-yl)phenyl)-2-(trifluoromethyl)benzamide], the minimal effective dose is 100 mg/kg in series [1] (0.5 h after administration), 300 mg/kg in series [1] (4 h after administration), 300 mg/kg in series [2] (setting [5]) and above 300 mg/kg in series [2] (setting [4]). Besides, in series [2] (setting [4]), the “scPTZ, dose at which at least one of three animals was protected” value is “inactive”. For the same compound, the “NT (neurotoxicity, ROT), dose at which at least one of three animals showed neurotoxicity” value (from here on “NT (neurotoxicity, ROT), dose at which”) in series [3] (0.5 h after administration) and in series [3] (4 h after administration) was above 300 mg/kg throughout.

Regarding `CCCCCCCCC(=O)Nc1ccc(-n2cncn2)cc1` [Compound 9g, N-(4-(1H-1,2,4-triazol-1-yl)phenyl)nonanamide], the minimal effective dose in series [1] (0.5 h after administration) is 300 mg/kg; in series [1] (4 h after administration), 300 mg/kg; in series [2] (setting [5]), 300 mg/kg; in series [2] (setting [4]), above 300 mg/kg. Moreover, the “NT (neurotoxicity, ROT), dose at which” value in series [3] (0.5 h after administration) and in series [3] (4 h after administration) was above 300 mg/kg in each case.

Consider `CCCCCCC(=O)Nc1ccc(-n2cncn2)cc1` [Compound 9e, N-(4-(1H-1,2,4-triazol-1-yl)phenyl)heptanamide], for which the minimal effective dose in series [1] (0.5 h after administration) was 100 mg/kg; in series [1] (4 h after administration), 300 mg/kg; in series [2] (setting [5]), 300 mg/kg; in series [2] (setting [4]), above 300 mg/kg. Further, the “NT (neurotoxicity, ROT), dose at which” value in series [3] (0.5 h after administration) and in series [3] (4 h after administration) was above 300 mg/kg in each case.

Consider `O=C(Nc1ccc(-n2cncn2)cc1)c1cccc(Cl)c1` [Compound 6c, N-(4-(1H-1,2,4-triazol-1-yl)phenyl)-3-chlorobenzamide], for which the minimal effective dose in series [1] (0.5 h after administration) stood at 100 mg/kg; in series [1] (4 h after administration), 300 mg/kg; in series [2] (setting [5]), 100 mg/kg; in series [2] (setting [4]), 100 mg/kg. For the same compound, the “NT (neurotoxicity, ROT), dose at which” value in series [3] (0.5 h after administration) and in series [3] (4 h after administration) was above 300 mg/kg in each case.

`O=C(Nc1ccc(-n2cncn2)cc1)c1cccc(C(F)(F)F)c1` [Compound 6i, N-(4-(1H-1,2,4-triazol-1-yl)phenyl)-3-(trifluoromethyl)benzamide] displayed an ED50 (MES) in series [1] of 21.9 mg/kg. The “PI (TD50/ED50) MES” value in series [1] was determined as 17.4. The minimal effective dose came out at 30 mg/kg in series [1] (0.5 h after administration), 30 mg/kg in series [1] (4 h after administration), 30 mg/kg in series [2] (setting [5]) and 100 mg/kg in series [2] (setting [4]). Moreover, the ED50 (scPTZ) in series [2] was 22.8 mg/kg. Further, the “PI (TD50/ED50) scPTZ” value in series [2] came to 16.7. For the same compound, the “TD50 (ROT)” value in series [3] is given as 381.4 (414.6–350.8) mg. The “NT (neurotoxicity, ROT), dose at which” value in series [3] (0.5 h after administration) and in series [3] (4 h after administration) was above 300 mg/kg each time.

As for `Cc1ccccc1C(=O)Nc1ccc(-n2cncn2)cc1` [Compound 6k, N-(4-(1H-1,2,4-triazol-1-yl)phenyl)-2-methylbenzamide], the minimal effective dose in series [1] (0.5 h after administration) amounted to 30 mg/kg; in series [1] (4 h after administration), 100 mg/kg; in series [2] (setting [5]) it was 100 mg/kg; in series [2] (setting [4]), 300 mg/kg. The “NT (neurotoxicity, ROT), dose at which” value in series [3] (0.5 h after administration) and in series [3] (4 h after administration) was above 300 mg/kg in each case.

Regarding `CCCCC(=O)Nc1ccc(-n2cncn2)cc1` [Compound 9c, N-(4-(1H-1,2,4-triazol-1-yl)phenyl)pentanamide], the ED50 (MES) in series [1] was 17.3 mg/kg. Further, the “PI (TD50/ED50) MES” value in series [1] was 15.0. The minimal effective dose is 30 mg/kg in series [1] (0.5 h after administration), 30 mg/kg in series [1] (4 h after administration), 30 mg/kg in series [2] (setting [5]) and 100 mg/kg in series [2] (setting [4]). In addition, the ED50 (scPTZ) in series [2] worked out at 35.5 mg/kg. For the same compound, in series [2], the “PI (TD50/ED50) scPTZ” value was found to be 7.3. The “TD50 (ROT)” value in series [3] is recorded as 260.0 (282.7–239.2) mg. The “NT (neurotoxicity, ROT), dose at which” value in series [3] (0.5 h after administration) is 300 mg/kg; in series [3] (4 h after administration), above 300 mg/kg.
